Laboratory results from EPA's ToxRefDB 2.

Assays:
rabbit = settings: Prenatal developmental toxicity study, new zealand white, Oral, Gavage/Intubation, dose end: 18 GD
rat [1] = settings: Multigenerational reproductive toxicity study, sprague dawley, Oral, Feed, dose end: 3 generation
dog = settings: Chronic toxicity, beagle, Oral, Capsule, dose end: 52 week, group: systemic
mouse [2] = settings: Carcinogenicity, cd1, Oral, Diet, dose end: 85 week, group: systemic
rat [3] = settings: Prenatal developmental toxicity study, other, Oral, Gavage/Intubation, dose end: 15 GD
mouse [4] = settings: Combined chronic toxicity/carcinogenicity, cd1, Oral, Diet, dose end: 104 week, group: systemic
rat [5] = settings: Combined chronic toxicity/carcinogenicity, wistar, Oral, Feed, dose end: 103 week, group: systemic
rat [6] = settings: Multigenerational reproductive toxicity study, other, Oral, Feed, dose end: 2 generation
[7] = group: developmental, developmental / developmental malformation / bone / fused + developmental / developmental malformation / bone / supernumerary
[8] = group: maternal, reproductive / reproductive performance / resorptions / resorptions
[9] = group: offspring, systemic / in life observation / body weight / offspring (pup) weight
[10] = group: parental, systemic / in life observation / body weight / body weight
[11] = group: reproductive, reproductive / offspring survival early / birth index / live birth index
[12] = systemic / in life observation / body weight / body weight gain + systemic / in life observation / food consumption / food consumption + …
[13] = systemic / in life observation / mortality / mortality + systemic / pathology microscopic / adrenal gland / amyloid deposition + systemic / …
[14] = group: developmental, developmental / developmental malformation / bone / [other] + developmental / developmental malformation / bone / delayed ossification + …
[15] = group: maternal, systemic / in life observation / body weight / body weight + systemic / in life observation / body weight / body weight gain + systemic / in…
[16] = systemic / organ weight / liver / absolute + systemic / organ weight / liver / relative to body weight + systemic / pathology microscopic / …
[17] = systemic / organ weight / spleen / nos + systemic / organ weight / spleen / relative to body weight
[18] = group: offspring, developmental / offspring survival late / viability index / viability index + systemic / in life observation / body weight / offspring (pup…
[19] = group: offspring, systemic / in life observation / body weight / offspring (pup) weight + systemic / in life observation / body weight / offspring (pup) …
[20] = group: parental, systemic / in life observation / body weight / body weight gain
[21] = group: parental, systemic / in life observation / body weight / body weight gain + systemic / in life observation / body weight / body weight + systemic / in…
[22] = group: reproductive, reproductive / reproductive performance / mating / mating

## CC(C)=CC1C(C(=O)OCc2coc(Cc3ccccc3)c2)C1(C)C (stereo unspecified) [Resmethrin]
rabbit; [7]
  LEL: 100 mg/kg/day
  LOAEL: 100 mg/kg/day
  NEL: 30 mg/kg/day
  NOAEL: 30 mg/kg/day
rabbit; [8]
  LEL: 100 mg/kg/day
  LOAEL: 100 mg/kg/day
  NEL: 30 mg/kg/day
  NOAEL: 30 mg/kg/day
Rat [1]; [9]
  LEL: 25 mg/kg/day
  LOAEL: 25 mg/kg/day
  NEL: < 25 mg/kg/day
  NOAEL: < 25 mg/kg/day
Rat [1]; [10]
  LEL: 40 mg/kg/day
  LOAEL: 40 mg/kg/day
  NEL: 25 mg/kg/day
  NOAEL: 25 mg/kg/day
Rat [1]; [11]
  LEL: 40 mg/kg/day
  LOAEL: > 62.5 mg/kg/day
  NEL: 25 mg/kg/day
  NOAEL: ≥ 62.5 mg/kg/day
dog; [12]
  NEL: 108 mg/kg/day
  NOAEL: 108 mg/kg/day
dog; systemic / in life observation / body weight / body weight gain + systemic / pathology microscopic / eye / cataract, subcapsular
  LOAEL: 430 mg/kg/day
dog; systemic / in life observation / body weight / body weight gain + systemic / pathology microscopic / eye / cataract, subcapsular + systemic…
  LEL: 430 mg/kg/day
Mouse [2]; [13]
  LOAEL: 138 mg/kg/day
  NEL: 36.3 mg/kg/day
  NOAEL: 71.3 mg/kg/day
Mouse [2]; systemic / organ weight / adrenal gland / absolute + systemic / organ weight / adrenal gland / relative to body weight + systemic / organ …
  LEL: 71.3 mg/kg/day
Rat [3]; [14]
  LEL: 80 mg/kg/day
  LOAEL: 80 mg/kg/day
  NEL: 40 mg/kg/day
  NOAEL: 40 mg/kg/day
Rat [3]; [15]
  LEL: 80 mg/kg/day
  LOAEL: 80 mg/kg/day
  NEL: 40 mg/kg/day
  NOAEL: 40 mg/kg/day
Mouse [4]; systemic / in life observation / mortality / mortality
  LOAEL: 84.3 mg/kg/day
Mouse [4]; systemic / in life observation / mortality / mortality + systemic / pathology microscopic / liver / adenoma/carcinoma combined + systemic / …
  NOAEL: 43.4 mg/kg/day
Mouse [4]; [16]
  LEL: 43.4 mg/kg/day
  NEL: < 43.4 mg/kg/day
Rat [5]; systemic / organ weight / liver / absolute + systemic / in life observation / body weight / body weight + systemic / in life observation / …
  LOAEL: 233 mg/kg/day
Rat [5]; systemic / organ weight / liver / absolute + systemic / organ weight / liver / relative to body weight + systemic / organ weight / spleen / …
  NOAEL: 47 mg/kg/day
Rat [5]; [17]
  LEL: 47 mg/kg/day
  NEL: < 47 mg/kg/day
Rat [6]; [18]
  LOAEL: 70.8 mg/kg/day
  NOAEL: 34.8 mg/kg/day
Rat [6]; [19]
  LEL: 34.8 mg/kg/day
  NEL: 17.4 mg/kg/day
Rat [6]; [20]
  NEL: 34.8 mg/kg/day
  NOAEL: 34.8 mg/kg/day
Rat [6]; [21]
  LEL: 70.8 mg/kg/day
  LOAEL: 70.8 mg/kg/day
Rat [6]; [22]
  LEL: 70.8 mg/kg/day
  LOAEL: 70.8 mg/kg/day
  NEL: 34.8 mg/kg/day
  NOAEL: 34.8 mg/kg/day
